{"source": "patent US8697441B2", "about": "“Method of inducing high activity of human adipose stem cell and medium therefor” (Seoul National University Hospital, priority 2009, dated 2014)", "key": {"[1]": {"test_system": "human adipose stem cells", "experiment": "Culturing of adipose stem cells in medium containing glycerol, cell counting", "type": "cell-based", "procedure": "Through experiments to elucidate the mechanism of improved growth ability observed in coculturing with adipocytes, The present inventors have confirmed that the fat metabolite glycerol is one of the important factors and found out that the growth ability and differentiation efficiency can be enhanced only with glycerol, without adipocytes. […] […] […] In addition, the degree of DNA polymerization was evaluated by BrdU assay in order to further investigate the ability of cell growth and differentiation."}, "[2]": {"test_system": "human adipose stem cells", "experiment": "Growth ability (BrdU assay)", "type": "cell-based", "conditions": "FIG. 6b", "procedure": "1. Growth Ability (BrdU Assay) DNA polymerization occurring during cell growth was quantitated using BrdU. The same number of isolated human adipose stem cells (2×10^4 cells each) were cultured in a culture dish in α-MEM containing 10-100 μM glycerol and 10% FBS. […] In addition, the degree of DNA polymerization was evaluated by BrdU assay in order to further investigate the ability of cell growth and differentiation."}, "[3]": {"test_system": "AKT", "experiment": "Analysis of activation mechanism: degree of AKT activation (pAKT/tAKT)", "type": "cell-based, human", "conditions": "FIG. 7; decreased again by inhibition of aquaporins (AQ1 and AQ9)", "quoted_text": "Then, protein was extracted from the cells of each group and the degree of AKT activation, which is a measure of cell activity, was measured. […] The degree of AKT activation is evaluated from the ratio of phosphorylated AKT (pAKT) to total AKT (tAKT). The total AKT was normalized with β-actin which is normally expressed in cells."}, "[4]": {"test_system": "human adipose stem cells cocultured with HUVECs", "experiment": "Matrigel tube formation assay after coculturing with HUVECs", "type": "cell-based", "conditions": "FIG. 8; adipose stem cells exposed to glycerol vs not exposed", "procedure": "3. Tube Formation Assay Vascular tube formation ability was observed after coculturing the cells with human umbilical vein endothelial cells (HUVECs). Differentiation potency was evaluated by Matrigel tube formation assay, which is widely used to compare formation of capillary-like structures in vitro, after coculturing human adipose stem cells with HUVECs."}}}
{"compound": "OCC(O)CO", "note": "[glycerol]", "values": [{"measurement": "most effective glycerol concentration", "setting": "[1]; FIG. 6, cell number, BrdU, morphology", "result": 10, "unit": "µM"}, {"measurement": "cell number", "setting": "[1]; FIG. 6a, adipose stem cells cultured in medium containing glycerol, by glycerol concentration", "result": "increased in a glycerol concentration-dependent manner"}, {"measurement": "cell number versus control groups", "setting": "[1]; G10 (10 μM glycerol), α-MEM with 10% FBS, 2×10^4 cells seeded, FIG. 6a", "result": "showed a cell number larger than those of the negative control group “control” and the positive control group “bFGF (4 ng/mL)”"}, {"measurement": "cytotoxicity", "setting": "[1]; glycerol concentration 500 μM", "result": "cytotoxicity was observed"}, {"measurement": "BrdU incorporation owing to cell division", "setting": "[2]; with glycerol concentration", "result": "increased BrdU incorporation"}, {"measurement": "DNA synthesis (BrdU assay)", "setting": "[2]; group G1", "result": "showed active DNA synthesis"}, {"measurement": "DNA synthesis (BrdU assay)", "setting": "[2]; group G10 (10 μM glycerol)", "result": "showed active DNA synthesis"}, {"measurement": "AKT activity", "setting": "[3]", "result": "increased AKT activity"}, {"measurement": "vascular tube formation ability", "setting": "[4]", "result": "increased vascular structures and densities"}]}
